{"source": "patent US11896589B2", "about": "“Diazinyl amino acridines and medical uses thereof” (MyCural Therapeutics AB, priority 2018, dated 2024)", "format_in_all_cases": "cell-based", "key": {"[1]": {"target": "T1, endogenous MYC:MAX interaction in MDA-MB231 cells (Homo sapiens, UniProt P01106)", "T1 construct": "endogenous in cells; host or cells: MDA-MB231", "T1 sequence (P01106 whole entry)": "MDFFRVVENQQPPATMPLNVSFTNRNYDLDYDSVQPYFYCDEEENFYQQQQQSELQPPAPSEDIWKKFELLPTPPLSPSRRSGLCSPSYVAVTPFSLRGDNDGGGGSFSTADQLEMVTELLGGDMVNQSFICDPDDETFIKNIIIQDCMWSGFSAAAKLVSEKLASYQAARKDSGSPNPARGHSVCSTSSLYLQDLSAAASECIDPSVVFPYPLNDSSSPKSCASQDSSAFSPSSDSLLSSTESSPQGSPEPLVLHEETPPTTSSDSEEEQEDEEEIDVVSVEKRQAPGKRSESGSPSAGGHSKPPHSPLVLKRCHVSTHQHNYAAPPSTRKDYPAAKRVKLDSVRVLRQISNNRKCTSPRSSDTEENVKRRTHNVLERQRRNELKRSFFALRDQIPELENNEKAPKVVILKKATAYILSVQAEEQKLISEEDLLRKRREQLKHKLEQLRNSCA", "assay": "Assay 3A isPLA assay, MYC:MAX", "from_the_text": "FIG. 4: A) Endogenous MYC:MAX (upper panel) and FRA1:JUN (lower panel) interactions as visualized as fluorescent red dots by isPLA. Nuclei were counterstained with DAPI (blue). […] As negative control, primary antibody pairs but only one oligo-conjugated secondary antibody was used. B) Quantification of MYC:MAX and C) FRA1:JUN isPLA, representing an average number of nuclear dots per cell from three microscopic fields normalized to corresponding values for DMSO-treated cells. […] 1st-4th lanes from top; coimmunoprecipitated MAX, immunoprecipitated MYC, total levels of MAX and ACTIN, respectively, as determined by western blot analysis. E) MYC:MAX GLuc assay in cells. […] 24 hours later cells were treated with […] of Example 1, Example 2 and control compound for 16 hours and thereafter analyzed in a dual luciferase assay. The ratio of Gaussia/Firefly luciferase luminescence were calculated and normalized to DMSO-treated cells.\nAssay 3A: The isPLA Assay\n(§1) Identification of endogenous protein-protein interactions in fixed cells and has been described (Soderberg, O. et al., Nat Methods, 3, 995-1000 (2006)). […] Endogenous MYC:MAX or FRA-1:JUN protein interactions were visualized by fluorescence microscopy as fluorescent dots mainly localized in the cell nucleus. […]"}, "[2]": {"target": "T2, FRA1:JUN interaction in MDA-MB231 cells (Homo sapiens, UniProt P05412+P15407)", "T2 construct": "endogenous in cells; host or cells: MDA-MB231", "T2 sequence (P15407 whole entry)": "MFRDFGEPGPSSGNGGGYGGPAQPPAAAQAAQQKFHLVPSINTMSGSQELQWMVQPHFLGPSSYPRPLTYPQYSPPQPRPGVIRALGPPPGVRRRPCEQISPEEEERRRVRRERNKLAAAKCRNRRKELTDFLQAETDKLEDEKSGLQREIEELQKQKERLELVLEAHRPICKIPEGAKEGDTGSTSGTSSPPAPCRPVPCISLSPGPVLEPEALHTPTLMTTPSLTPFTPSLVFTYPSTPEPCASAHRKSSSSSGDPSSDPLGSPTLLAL", "T2 sequence (P05412 whole entry)": "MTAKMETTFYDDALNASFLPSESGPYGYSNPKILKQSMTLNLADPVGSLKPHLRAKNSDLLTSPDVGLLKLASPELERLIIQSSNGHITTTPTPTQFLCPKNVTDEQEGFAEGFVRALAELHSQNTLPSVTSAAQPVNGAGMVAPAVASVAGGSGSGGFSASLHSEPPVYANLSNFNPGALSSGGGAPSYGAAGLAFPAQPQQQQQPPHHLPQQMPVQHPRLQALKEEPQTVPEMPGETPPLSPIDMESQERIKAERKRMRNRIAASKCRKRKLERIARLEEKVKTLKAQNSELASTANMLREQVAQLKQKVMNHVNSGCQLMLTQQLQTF", "assay": "Assay 3A isPLA assay, FRA1:JUN", "details": "10 μM", "protocol": "(§2) FIG. 4: A) Endogenous MYC:MAX (upper panel) and FRA1:JUN (lower panel) interactions as visualized as fluorescent red dots by isPLA. Nuclei were counterstained with DAPI (blue). Cells were treated with 10 μM of indicated compounds for 16 hours and subjected to isPLA using pairs of MYC and MAX and of FRA1 and JUN antibodies, respectively. As negative control, primary antibody pairs but only one oligo-conjugated secondary antibody was used. B) Quantification of MYC:MAX and C) FRA1:JUN isPLA, representing an average number of nuclear dots per cell from three microscopic fields normalized to corresponding values for DMSO-treated cells. […] 1st-4th lanes from top; coimmunoprecipitated MAX, immunoprecipitated MYC, total levels of MAX and ACTIN, respectively, as determined by western blot analysis. E) MYC:MAX GLuc assay in cells. […] 24 hours later cells were treated with […] of Example 1, Example 2 and control compound for 16 hours and thereafter analyzed in a dual luciferase assay. The ratio of Gaussia/Firefly luciferase luminescence were calculated and normalized to DMSO-treated cells.\nas §1"}, "[3]": {"target": "T3, endogenous MYC:MAX in MDA-MB231 cells (Homo sapiens, UniProt P01106)", "T3 construct": "endogenous in cells; host or cells: MDA-MB231", "T3 sequence (P01106 whole entry)": "as the sequence (P01106 whole entry) above", "assay": "Assay 3B CoIP of endogenous MAX with MYC", "protocol": "as §2\nCoimmunoprecipitation of endogenous MYC:MAX proteins were essentially carried out as in Bahram, F. et al. Interferon-gamma-induced p27KIP1 binds to and targets MYC for proteasome-mediated degradation. Oncotarget 7, 2837-2854, doi:10.18632/oncotarget.6693 (2016). […]"}, "[4]": {"system": "MYCN-amplified neuroblastoma cells (SK-N-DZ, Kelly, IMR-32)", "assay": "Assay 5A neuroblastoma cell growth (WST-1), MYCN-amplified", "details": "Homo sapiens, second run", "protocol": "FIG. 6: A-B) Neuroblastoma cell lines with (SK-N-DZ, Kelly and IMR-32) or without (SK-N-F1, SK-N-RA and SK-N-AS) MYCN-amplification were exposed to different concentrations of Example 1, Example 2 and control compound, respectively, for 48 hours. Cell growth and viability was estimated by measuring metabolic activity. C) Growth of TGR-1 (wt), HO15.19 (MYC knockout) and HOmyc3 (MYC reconstituted HO15.19) Rat1 fibroblasts, as measured by the WST-1 assay after treatment with Example 1. Data are shown as mean±standard deviation of 3-5 biological experiments, each with 3 technical repeats.\nAssay 5A: Neuroblastoma Cell Growth\nNeuroblastoma cell lines with (SK-N-DZ, Kelly and IMR-32) or without (SK-N-F1, SK-N-RA and SK-N-AS) MYCN-amplification were exposed to different concentrations of example compounds for 48 hours. Cell growth and viability was estimated by measuring metabolic activity by incubating cells in triplicates with WST-1 (Roche) in medium at 37° C. and 5% CO2 for 2 hours after which absorbance was measured with an Omega Fluostar (BMG Labtech) in a 96 well plate format."}}}
{"smiles": "CCOc1ccc2nc3cc(/N=N/c4ccc(N)nc4N)ccc3c(N)c2c1", "note": "[Example 1, 3-((9-amino-7-ethoxyacridin-3-yl)diazenyl)pyridine-2,6-diamine sulphate hydrate]", "values": [{"measurement": "isPLA signals, % of DMSO control", "setting": "[1]; 10 μM, 24 hours", "result": 7, "unit": "%"}, {"measurement": "inhibition at 10 µM", "setting": "[1]; MDA-MB-231", "result": 95, "unit": "%"}, {"measurement": "effect on FRA1:JUN interaction (isPLA)", "setting": "[2]", "result": "not affecting"}, {"measurement": "reduction of MYC:MAX protein interaction vs DMSO treated cells (CoIP)", "setting": "[3]; 5 μM, 3.5 hours", "result": "More than Half"}, {"measurement": "inhibition at 5 µM", "setting": "[3]; MDA-MB-231, read-out: CoIP inhibition at 10 μM", "result": "> 70", "unit": "%"}, {"measurement": "GI50", "setting": "[4]", "result": 2.5, "unit": "µM"}]}
